Laboratory results: US8618303B2, “Pyrrolidine derivatives” (Hoffmann-La Roche Inc., priority 2011, dated 2013)

What follows are compounds tested against human NK3 receptor (Homo sapiens (Human), UniProt P29371) (assay: [3H]SR142801 competition binding assay). Conditions: not given.
Experimental: hNK3 receptor binding experiment were performed using [^3H]SR142801 (Catalog No. TRK1035, specific activity: 74.0 Ci/mmol, Amersham, GE Healthcare UK limited, Buckinghamshire, UK) and membrane isolated from HEK293 cells transiently expressing recombinant human NK3 receptor. After thawing, the membrane homogenates were centrifuged at 48,000×g for 10 min at 4° C., the pellets were resuspended in the 50 mM Tris-HCl, 4 mM MnCl2, 1 μM phosphoramidon, 0.1% BSA binding buffer at pH 7.4 to a final assay concentration of 5 μg protein/well. […] At the end of the incubation, membranes were filtered onto unitfilter (96-well white microplate with bonded GF/C filter preincubated 1 h in 0.3% PEI+0.3% BSA, Packard BioScience, Meriden, Conn.) with a Filtermate 196 harvester (Packard BioScience) and washed 4 times with ice-cold 50 mM Tris-HCl, pH 7.4 buffer. Nonspecific binding was measured in the presence of 10μM SB222200 for both radioligands. The radioactivity on the filter was counted (5 min) on a Packard Top-count microplate scintillation counter with quenching correction after addition of 45 μl of microscint 40 (Canberra Packard S.A., Ziirich, Switzerland) and shaking for 1 h. Inhibition curves were fitted according to the Hill equation: y=100/(1+(x/IC50), where nH=slope factor using Excel-fit 4 software (Microsoft). IC50 values were derived from the inhibition curve and the affinity constant (Ki) values were calculated using the Cheng-Prussoff equation Ki =IC50/(1+[L]/KD) where [L] is the concentration of radioligand and KD is its dissociation constant at the receptor, derived from the saturation isotherm. All experiments were performed in duplicate and the mean±standard error (SEM) of the individual Ki values was calculated.

Chain of human NK3 receptor (P29371 whole entry): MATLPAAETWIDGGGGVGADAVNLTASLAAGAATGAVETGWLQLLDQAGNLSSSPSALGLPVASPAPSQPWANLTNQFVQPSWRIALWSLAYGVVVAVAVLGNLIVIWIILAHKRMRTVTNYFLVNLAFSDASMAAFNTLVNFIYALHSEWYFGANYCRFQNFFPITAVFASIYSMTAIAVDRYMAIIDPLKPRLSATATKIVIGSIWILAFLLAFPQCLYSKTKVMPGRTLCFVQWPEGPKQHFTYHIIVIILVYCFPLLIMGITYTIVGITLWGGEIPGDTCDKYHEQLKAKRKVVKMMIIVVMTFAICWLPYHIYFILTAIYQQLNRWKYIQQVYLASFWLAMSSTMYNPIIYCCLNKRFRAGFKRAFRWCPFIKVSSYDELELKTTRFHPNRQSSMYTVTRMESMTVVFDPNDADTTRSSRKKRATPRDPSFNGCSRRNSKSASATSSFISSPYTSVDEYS

Point of comparison: `CN(C(=O)Oc1ccc(F)cc1)[C@@H]1CN(C(=O)C2CCN(c3ccc(F)cn3)CC2)C[C@@]1(C)c1ccc(Cl)cc1` (racemic) [Example 23, rac-[(3S,4R)-4-(4-Chloro-phenyl)-1-(5′-fluoro-3,4,5,6-tetrahydro-2H-[1,2′]bipyridinyl-4-carbonyl)-4-methyl-pyrrolidin-3-yl]-methyl-carbamic acid 4-fluoro-phenyl ester], Ki 0.0435 µM. Against it:
- CC(=O)c1ccc(N2CCC(C(=O)N3C[C@@H](N(C)C(=O)Oc4ccc(F)cc4)[C@](C)(c4ccc(Cl)cc4)C3)CC2)nc1 (racemic) [Example 31, rac-[(3S,4R)-1-(5′-Acetyl-3,4,5,6-tetrahydro-2H-[1,2′]bipyridinyl-4-carbonyl)-4-(4-chloro-phenyl)-4-methyl-pyrrolidin-3-yl]-methyl-carbamic acid 4-fluoro-phenyl ester] — 5.4-fold lower, 0.0081 µM

Same assay, conditions: membranes from HEK293 cells transiently expressing recombinant human NK3 receptor; [3H]SR142801; Ki from IC50 by Cheng-Prussoff; read-out: Ki (uM) hNK3

Point of comparison: `Cc1ccc(N2CCC(C(=O)N3C[C@@H](N(C)C(=O)Oc4ccc(F)cc4)[C@](C)(c4ccc(Cl)cc4)C3)CC2)nc1` (racemic) [Example 29, rac-[(3S,4R)-4-(4-Chloro-phenyl)-4-methyl-1-(5′-methyl-3,4,5,6-tetrahydro-2H-[1,2′]bipyridinyl-4-carbonyl)-pyrrolidin-3-yl]-methyl-carbamic acid 4-fluoro-phenyl ester], Ki 0.0245 µM. Against it:
- CC(C)C(=O)N1CCC(C(=O)N2C[C@@H](N(C)C(=O)Oc3ccc(F)cc3)[C@](C)(c3ccc(Cl)cc3)C2)CC1 (racemic) [Example 24, rac-[(3S,4R)-4-(4-Chloro-phenyl)-1-(1-isobutyryl-piperidine-4-carbonyl)-4-methyl-pyrrolidin-3-yl]-methyl-carbamic acid 4-fluoro-phenyl ester] — 1.6-fold higher, 0.0392 µM
- CN(C(=O)Oc1ccc(F)cc1)[C@@H]1CN(C(=O)c2ccc(C#N)cc2)C[C@@]1(C)c1ccc(Cl)cc1 (racemic) [Example 26, rac-[(3S,4R)-4-(4-Chloro-phenyl)-1-(4-cyano-benzoyl)-4-methyl-pyrrolidin-3-yl]-methyl-carbamic acid 4-fluoro-phenyl ester] — 26-fold higher, 0.629 µM
- CC(=O)N1CCC(C(=O)N2C[C@@H](N(C)C(=O)Oc3ccc(F)cc3)[C@](C)(c3ccc(Cl)cc3)C2)CC1 (racemic) [Example 27, rac-[(3S,4R)-1-(1-Acetyl-piperidine-4-carbonyl)-4-(4-chloro-phenyl)-4-methyl-pyrrolidin-3-yl]-methyl-carbamic acid 4-fluoro-phenyl ester] — 2.1-fold higher, 0.051 µM
- CN(C(=O)Oc1ccc(F)cc1)[C@@H]1CN(C(=O)C2CCOCC2)C[C@@]1(C)c1ccc(Cl)cc1 (racemic) [Example 28, rac-[(3S,4R)-4-(4-Chloro-phenyl)-4-methyl-1-(tetrahydro-pyran-4-carbonyl)-pyrrolidin-3-yl]-methyl-carbamic acid 4-fluoro-phenyl ester] — 14-fold higher, 0.348 µM
- CN(C(=O)Oc1ccc(F)cc1)[C@@H]1CN(C(=O)C2CCN(c3ccc(C#N)cn3)CC2)C[C@@]1(C)c1ccc(Cl)cc1 (racemic) [Example 30, rac-[(3S,4R)-4-(4-Chloro-phenyl)-1-(5′-cyano-3,4,5,6-tetrahydro-2H-[1,2′]bipyridinyl-4-carbonyl)-4-methyl-pyrrolidin-3-yl]-methyl-carbamic acid 4-fluoro-phenyl ester] — 4.6-fold lower, 0.0053 µM
- CN(C(=O)Oc1ccc(F)cc1)[C@@H]1CN(C(=O)C2CCN(c3ccc(Cl)cn3)CC2)C[C@@]1(C)c1ccc(Cl)cc1 (racemic) [Example 32, rac-[(3S,4R)-4-(4-Chloro-phenyl)-1-(5′-chloro-3,4,5,6-tetrahydro-2H-[1,2′]bipyridinyl-4-carbonyl)-4-methyl-pyrrolidin-3-yl]-methyl-carbamic acid 4-fluoro-phenyl ester] — 2.5-fold lower, 0.0099 µM
- CN(C(=O)Oc1ccc(F)cc1)[C@@H]1CN(C(=O)C2CCN(c3ccc(C(F)(F)F)cn3)CC2)C[C@@]1(C)c1ccc(Cl)cc1 (racemic) [Example 33, rac-[(3S,4R)-4-(4-Chloro-phenyl)-4-methyl-1-(5′-trifluoromethyl-3,4,5,6-tetrahydro-2H-[1,2′]bipyridinyl-4-carbonyl)-pyrrolidin-3-yl]-methyl-carbamic acid 4-fluoro-phenyl ester] — within 1.5-fold, 0.02 µM
